Measured values: patent US5866540A, “Cyclic adhesion inhibitors” (Merck Patent Gesellschaft mit Beschrankter Haftung, priority 1995, dated 1999)
Where a SMILES comes first, the peptide text is derived from it. [ ]: non-standard residue; d: D form.

Legend:
[1] = biological target: αIIbβ3 (Homo sapiens, UniProt P05106+P08514); assay: Solid-phase receptor binding ELISA: competition with biotinylated fibrinogen on coated integrin receptor; conditions: ligand biotinylated fibrinogen 1 μg/ml; receptor coated at 1 μg/ml; 3 h at 30° C.; triplicates
Description: (§1) The effect was found by using the method of J. W. Smith, Z. M. Ruggei, T. J. Kunicki and D. A. Cheesh descibed in J. Biol. Chem. 265, 12 267-12 271 (1990).
(§2) Details of the method are as follows:
(§3) A ninety six well untreated flat bottom plate was coated with 100 μl/well of 1 μg/ml receptor (αIIβe; αVβ3) in coating buffer and incubated on a shaker at 4° C. overnight. The plate was washed 1× with binding buffer and then blocked with blocking buffer (100 μl/well for two hours at 30° C. After an additional washing with binding buffer, the biotinylated ligand and the competitor were added.
(§4) The ligand fibrinogen was used at a final concentration of 1 μg/ml. The competitor was added at increasing concentrations. Both ligand and competitor were added in volume of 50 μl/well at 2× of the final concentration diluted in binding buffer.
(§5) The plate was covered and incubated for three hours at 30° C. To remove unbound material the plate was washed 3× with binding buffer 100 μl/well.
(§6) Goat anti biotin antibody alkaline phosphatase conjugate (1:2000 dilution) in binding buffer was added (100 μl/well) and the plate was incubated for one hour at 30° C.
(§7) The plate was washed 3× with binding buffer, the substrate solution was added and developed in the dark at room temperature for 1-5 minutes.
(§8) The reaction was stopped by addition of 100 μl/well of 0.4M NaOH and read in the ELISA reader at 405 nm.
(§9) All points were run in triplicates.

[2] = biological target: αvβ3 (Homo sapiens, UniProt P05106+P06756); assay: as above; conditions: ligand biotinylated fibrinogen 1 μg/ml; receptor coated at 1 μg/ml; 3 h at 30° C.; triplicates
Description: as §1, §2, §3, §4, §5, §6, §7, §8, §9

IC50 [1] | IC50 [2] | SMILES
> 100 µM | 0.77 µM | CC(C)[C@@H]1NC(=O)[C@@H](Cc2ccccc2)NC(=O)[C@H](CC(=O)O)NC(=O)[C@H](C)NC(=O)[C@H](CCCN=C(N)N)NC1=O [cyclo(--Arg--Ala--Asp--D--Phe--Val), cyclo(-Arg-Ala-Asp-D-Phe-Val)] (cyclo(AD[dF]VR))
> 100 µM | 52 µM | CC(C)[C@@H]1NC(=O)[C@H](Cc2ccccc2)NC(=O)[C@H](CC(=O)O)NC(=O)[C@@H](C)NC(=O)[C@H](CCCNC(=N)N)NC1=O [cyclo(--Arg--D--Ala--Asp--Phe--Val), cyclo(-Arg-D-Ala-Asp-Phe-Val)] (cyclo(R[dA]DFV))
0.76 µM | 1.1 µM | CC(C)C[C@@H]1NC(=O)[C@@H](Cc2ccccc2)NC(=O)[C@H](CC(=O)O)NC(=O)CNC(=O)[C@H](CCCNC(=N)N)NC(=O)[C@H](C)NC1=O [cyclo(--Arg--Gly--Asp--D--Phe--Leu--Ala), cyclo(-Arg-Gly-Asp-D-Phe-Leu-Ala)] (cyclo(ARGD[dF]L))
0.06 µM | 0.54 µM | CC(C)C[C@@H]1NC(=O)[C@@H](Cc2ccccc2)NC(=O)[C@H](CC(=O)O)NC(=O)CNC(=O)[C@H](CCCNC(=N)N)NC(=O)CNC1=O [cyclo(--Arg--Gly--Asp--D--Phe--Leu--Gly), cyclo(-Arg-Gly-Asp-D-Phe-Leu-Gly)] (cyclo(GRGD[dF]L))
0.32 µM | 0.9 µM | CC(C)[C@@H]1NC(=O)[C@@H](Cc2ccccc2)NC(=O)[C@H](CC(=O)O)NC(=O)CNC(=O)[C@H](CCCNC(=N)N)NC(=O)[C@H](C)NC1=O [cyclo(--Arg--Gly--Asp--D--Phe--Val--Ala), cyclo(-Arg-Gly-Asp-D-Phe-Val-Ala)] (cyclo(RGD[dF]VA))
0.13 µM | 0.62 µM | CC(C)[C@@H]1NC(=O)[C@@H](Cc2ccccc2)NC(=O)[C@H](CC(=O)O)NC(=O)CNC(=O)[C@H](CCCNC(=N)N)NC(=O)CNC1=O [cyclo(--Arg--Gly--Asp--D--Phe--Val--Gly), cyclo(-Arg-Gly-Asp-D-Phe-Val-Gly)] (cyclo(RGD[dF]VG))
0.74 µM | 0.37 µM | C[C@@H]1NC(=O)[C@H]2CCCN2C(=O)[C@H](Cc2ccccc2)NC(=O)[C@H](CC(=O)O)NC(=O)CNC(=O)[C@H](CCCNC(=N)N)NC1=O [cyclo(--Arg--Gly--Asp--Phe--D--Pro--Ala), cyclo(-Arg-Gly-Asp-Phe-D-Pro-Ala)] (cyclo(RGDF[dP]A))
1.5 µM | 1.06 µM | N=C(N)NCCC[C@@H]1NC(=O)CNC(=O)[C@H]2CCCN2C(=O)[C@H](Cc2ccccc2)NC(=O)[C@H](CC(=O)O)NC(=O)CNC1=O [cyclo(--Arg--Gly--Asp--Phe--D--Pro--Gly)] (cyclo(RGDF[dP]G))
0.76 µM | 0.31 µM | CC(C)C[C@@H]1NC(=O)[C@H](Cc2ccccc2)NC(=O)[C@H](CC(=O)O)NC(=O)CNC(=O)[C@H](CCCNC(=N)N)NC(=O)[C@@H](C)NC1=O [cyclo(--Arg--Gly--Asp--Phe--Leu--D--Ala), cyclo(-Arg-Gly-Asp-Phe-Leu-D-Ala)] (cyclo(RGDFL[dA]))
0.62 µM | 0.48 µM | C[C@@H]1NC(=O)[C@@H]2CCCN2C(=O)[C@H](Cc2ccccc2)NC(=O)[C@H](CC(=O)O)NC(=O)CNC(=O)[C@H](CCCNC(=N)N)NC1=O [cyclo(--Arg--Gly--Asp--Phe--Pro--Ala), cyclo(-Arg-Gly-Asp-Phe-Pro-Ala)] (cyclo(RGDFPA))
1.53 µM | 0.16 µM | N=C(N)NCCC[C@@H]1NC(=O)CNC(=O)[C@@H]2CCCN2C(=O)[C@H](Cc2ccccc2)NC(=O)[C@H](CC(=O)O)NC(=O)CNC1=O [cyclo(--Arg--Gly--Asp--Phe--Pro--Gly), cyclo(-Arg-Gly-Asp-Phe-Pro-Gly)] (cyclo(RGDFPG))
1.5 µM | 0.25 µM | CC(C)[C@@H]1NC(=O)[C@H](Cc2ccccc2)NC(=O)[C@H](CC(=O)O)NC(=O)CNC(=O)[C@H](CCCNC(=N)N)NC(=O)[C@@H](C)NC1=O [cyclo(--Arg--Gly--Asp--Phe--Val--D--Ala), cyclo(-Arg-Gly-Asp-Phe-Val-D-Ala)] (cyclo(RGDFV[dA]))
22 µM | 4.5 µM | CC(C)[C@@H]1NC(=O)[C@H](Cc2ccccc2)NC(=O)[C@H](CC(=O)O)NC(=O)CNC(=O)[C@@H](CCCNC(=N)N)NC(=O)[C@H](C)NC1=O [cyclo(--D--Arg--Gly--Asp--Phe--Val--Ala), cyclo(-D-Arg-Gly-Asp-Phe-Val-Ala)] (cyclo([dR]GDFVA))
20.5 µM | 1.52 µM | CC(C)[C@@H]1NC(=O)[C@H](Cc2ccccc2)NC(=O)[C@H](CC(=O)O)NC(=O)CNC(=O)[C@@H](CCCNC(=N)N)NC(=O)CNC1=O [cyclo(--D--Arg--Gly--Asp--Phe--Val--Gly), cyclo(-D-Arg-Gly-Asp-Phe-Val-Gly)] (cyclo(G[dR]GDFV))
